Laboratory results taken from patent publication US20230054926A1, “COMPOSITIONS AND METHODS FOR MICROBIAL TREATMENT OF SKIN DISORDERS” (DUPONT US HOLDING, LLC, priority 2020, published 2023).

Tested on: M. globosa
Test: Flow cytometry analysis of M. globosa growth inhibition by cell free fermentate
Assay type: cell-based, Malassezia globosa
Conditions: Example 6, 200 μl supernatant + 800 μl diluted culture, vs respective media control, amphotericin B 2.5 μg/ml
Method: The growth medium for Malassezia species was a modified Leeming & Notman (mLN) media that contained 10 g/L bacteriological peptone, 2 g/L yeast extract, 8 g/L desiccated ox bile, 10 ml/L glycerol, 0.5 g/L glycerol monostearate, 5 ml/L Tween-60 and 20 ml/L palm oil.
Lipid emulsion by the presence of lipids and surfactants in the mLN media as well as cell clumping phenotype of Malassezia spp, make it difficult to monitor cell growth by optical density measurement or colony counting after spreading a culture aliquot on plates, To circumvent this issue, flow cytometry with cell staining dyes was used to quantitatively measure cell growth in lipid emulsion media. […]
At different time points, 50 μl aliquot from each culture was subjected to mild sonication with amplitude of 5 and 1 sec on/off cycle for 30 sec using Qsonica 0700 (Qsonica, Newtown, Conn.). […] The samples were analyzed by flow cytometry using a Novocyte Quanteon (Asea). SytoBC, a cell permeable DNA/RNA intercalating dye was excited by the 488 laser and detected using a 530/30 bandwidth filter. Concanavalin A, a mannose binding lectin labeled with alexaFluor 640, was excited with the 637 nm laser and detected using a 660/20 bandwidth filter. […] Malassezia cell counts were determined by gating on high sytoBC, high ConA events and recording the event/ul values for each sample. […]

C[C@@H]1[C@H](O)[C@@H](C)/C=C/C=C/C=C/C=C/C=C/C=C/C=C/[C@H](O[C@@H]2O[C@H](C)[C@@H](O)[C@H](N)[C@@H]2O)C[C@@H]2O[C@](O)(C[C@@H](O)C[C@@H](O)[C@H](O)CC[C@@H](O)C[C@@H](O)CC(=O)O[C@H]1C)C[C@H](O)[C@H]2C(=O)O [Amphotericin B, amphotericin B]
% M. globosa growth inhibition (Day 1): 4% | % M. globosa growth inhibition (Day 3): 88%
